In patent US20220162191A1, “SMALL MOLECULE MODULATORS OF IL-17” (LEO PHARMA A/S, priority 2019, published 2022):

Biological target: T1, human IL-17AA (Homo sapiens, UniProt Q16552)
T1 construct: host or cells: HEK (human embryonic kidney) cells
T1 sequence (Q16552 24-155) 1: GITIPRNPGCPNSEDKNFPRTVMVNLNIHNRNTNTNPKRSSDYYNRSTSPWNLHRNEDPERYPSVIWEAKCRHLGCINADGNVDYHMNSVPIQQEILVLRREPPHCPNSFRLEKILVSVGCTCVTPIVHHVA
T1 sequence (Q16552 24-155) 2: T1 sequence (Q16552 24-155) 1
Assay: IL-8 release assay in human epithelial keratinocytes adult (HEKa)
Type: cell-based
Conditions: 3 ng/ml human IL-17AA + 10 ng/ml human TNFalpha, 68-72 h, IL-8 by HTRF, read-out: Rel EC50 L-8 release assay
Summary of the method: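 IL-8 secretion, quantified by HTRF (665/620 nm) as percent of controls, served as the readout after 68–72 h culture of HEKa cells with compound plus IL-17AA (3 ng/ml final) and TNF-alpha (10 ng/ml final). Four-parameter logistic curves gave relative IC50 and Emax.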

Compound	EC50 [nM]
Cn1cnnc1-c1ccc(NC(=O)C(Cc2cc(-c3ccc(O)c(C(=O)N4CCOCC4)c3)ccc2Cl)NC(=O)c2ccnn2C)cc1 (centres unmarked) [Example 296, N-[1-[[2-chloro-5-[4-hydroxy-3-(morpholine-4-carbonyl)phenyl]phenyl]methyl]-2-[4-(4-methyl-1,2,4-triazol-3-yl)anilino]-2-oxo-ethyl]-2-methyl-pyrazole-3-carboxamide]	> 1000
Cc1ncnn1-c1ccc(NC(=O)C(Cc2cc(-c3ccc(=O)n(C(C)C)c3)ccc2Cl)NC(=O)c2ccnn2C)cc1 (centres unmarked) [Example 88, N-[1-[[2-chloro-5-(1-isopropyl-6-oxo-3-pyridyl)phenyl]methyl]-2-[4-(5-methyl-1,2,4-triazol-1-yl)anilino]-2-oxo-ethyl]-2-methyl-pyrazole-3-carboxamide]	> 1000
C[C@@H]1CN(c2cc(-c3ccc(Cl)c(C[C@H](NC(=O)c4ccnn4C)C(=O)Nc4ccc(-c5cncn5C)cc4)c3)ccn2)CCN1 [Example 210, N-[(1S)-1-[[2-chloro-5-[2-[(3R)-3-methylpiperazin-1-yl]-4-pyridyl]phenyl]methyl]-2-[4-(3-methylimidazol-4-yl)anilino]-2-oxo-ethyl]-2-methyl-pyrazole-3-carboxamide]	100 to 1000
Cc1nccn1-c1ccc(NC(=O)[C@H](Cc2cc(-c3ccc(=O)n(C(C)C)c3)ccc2Cl)NC(=O)C2(F)CC2)cc1 [Example 114, N-[(1S)-1-[[2-chloro-5-(1-isopropyl-6-oxo-3-pyridyl)phenyl]methyl]-2-[4-(2-methylimidazol-1-yl)anilino]-2-oxo-ethyl]-1-fluoro-cyclopropanecarboxamide]	100 to 1000
CC(c1cc(-c2ccc(=O)n(C(C)C)c2)ccc1Cl)C(NC(=O)c1ccnn1C)C(=O)Nc1ccc(-c2cncn2C)cc1 (centres unmarked) [Example 55, N-[2-[2-chloro-5-(1-isopropyl-6-oxo-3-pyridyl)phenyl]-1-[[4-(3-methylimidazol-4-yl)phenyl]carbamoyl]propyl]-2-methyl-pyrazole-3-carboxamide]	> 1000
Cn1cncc1-c1ccc(NC(=O)C(Cc2cc(-c3ccnc(N4CCC4CO)c3)ccc2Cl)NC(=O)c2ccnn2C)cc1 (centres unmarked) [Example 187, N-[1-[[2-chloro-5-[2-[2-(hydroxymethyl)azetidin-1-yl]-4-pyridyl]phenyl]methyl]-2-[4-(3-methylimidazol-4-yl)anilino]-2-oxo-ethyl]-2-methyl-pyrazole-3-carboxamide]	100 to 1000
Cn1cncc1-c1ccc(NC(=O)C(Cc2cc(-c3cccc(C(C)(C)O)c3)ccc2Cl)NC(=O)c2ccnn2C)cc1 (centres unmarked) [Example 179, N-[1-[[2-chloro-5-[3-(1-hydroxy-1-methyl-ethyl)phenyl]phenyl]methyl]-2-[4-(3-methylimidazol-4-yl)anilino]-2-oxo-ethyl]-2-methyl-pyrazole-3-carboxamide]	< 100
Cc1n[nH]c(C)c1-c1ccc(NC(=O)[C@@H](NC(=O)C2(F)CC2)[C@@H]2CCc3ccc(-n4cnc(C(C)C)c4)cc32)cc1 [Example 360, N-[(1S)-2-[4-(3,5-dimethyl-1H-pyrazol-4-yl)anilino]-1-[(1R)-6-(4-isopropylimidazol-1-yl)indan-1-yl]-2-oxo-ethyl]-1-fluoro-cyclopropanecarboxamide]	100 to 1000
Cc1nccn1-c1ccc(NC(=O)[C@@H](NC(=O)c2ccnn2C)[C@@H]2CCCc3ccc(-c4ccnc(N5C[C@@H]6C[C@H]5CO6)c4)cc32)cc1 [Example 402, 2-methyl-N-[(1S)-2-[4-(2-methylimidazol-1-yl)anilino]-1-[(1R)-7-[2-[(1S,4S)-2-oxa-5-azabicyclo[2.2.1]heptan-5-yl]-4-pyridyl]tetralin-1-yl]-2-oxo-ethyl]pyrazole-3-carboxamide]	< 100
Cc1cnn(C)c1-c1ccc(NC(=O)[C@H](Cc2cc(-c3ccc(=O)n(C(C)C)c3)ccc2Cl)NC(=O)c2ccno2)cc1 [Example 324, N-[(1S)-1-[[2-chloro-5-(1-isopropyl-6-oxo-3-pyridyl)phenyl]methyl]-2-[4-(2,4-dimethylpyrazol-3-yl)anilino]-2-oxo-ethyl]isoxazole-5-carboxamide]	100 to 1000
CC(C)n1cc(-c2ccc(Cl)c(C[C@H](NC(=O)C3CC(F)(F)C3)C(=O)Nc3ccc(-c4nncn4C)cc3)c2)ccc1=O [Example 291, N-[(1S)-1-[[2-chloro-5-(1-isopropyl-6-oxo-3-pyridyl)phenyl]methyl]-2-[4-(4-methyl-1,2,4-triazol-3-yl)anilino]-2-oxo-ethyl]-3,3-difluoro-cyclobutanecarboxamide]	> 1000
Cc1n[nH]c(C)c1-c1ccc(NC(=O)[C@H](Cc2cc(-c3cccc(C(C)(C)N)c3)ccc2Cl)NC(=O)c2ccnn2C)cc1 [Example 59, N-[(1S)-1-[[5-[3-(1-amino-1-methyl-ethyl)phenyl]-2-chloro-phenyl]methyl]-2-[4-(3,5-dimethyl-1H-pyrazol-4-yl)anilino]-2-oxo-ethyl]-2-methyl-pyrazole-3-carboxamide]	< 100
Cc1n[nH]c(C)c1-c1ccc(NC(=O)[C@H](Cc2cc(-c3ccc(CN4C[C@H]5C[C@@H]4CO5)cc3)ccc2Cl)NC(=O)C2(F)CC2)cc1 [Example 228, N-[(1S)-1-[[2-chloro-5-[4-[[(1R,4R)-2-oxa-5-azabicyclo[2.2.1]heptan-5-yl]methyl]phenyl]phenyl]methyl]-2-[4-(3,5-dimethyl-1H-pyrazol-4-yl)anilino]-2-oxo-ethyl]-1-fluoro-cyclopropanecarboxamide]	100 to 1000
Cc1n[nH]cc1-c1ccc(NC(=O)C(NC(=O)c2ccnn2C)C(c2ccccc2)c2cccc(-c3ccc(=O)n(C(C)C)c3)c2)cc1 (single isomer, unassigned; diastereomer 2) [Example 236, N-[1-[[3-(1-isopropyl-6-oxo-3-pyridyl)phenyl]-phenyl-methyl]-2-[4-(3-methyl-1H-pyrazol-4-yl)anilino]-2-oxo-ethyl]-2-methyl-pyrazole-3-carboxamide (Diastereomer 2)]	< 100
Cc1n[nH]c(C)c1-c1ccc(NC(=O)[C@@H](NC(=O)c2ccnn2C)[C@@H]2CCc3ccc(-c4cnn(CC(C)(C)O)c4)cc32)cc1 [Example 13, N-[(1S)-2-[4-(3,5-dimethyl-1H-pyrazol-4-yl)anilino]-1-[(1R)-6-[1-(2-hydroxy-2-methyl-propyl)pyrazol-4-yl]indan-1-yl]-2-oxo-ethyl]-2-methyl-pyrazole-3-carboxamide]	< 100
C[C@@H]1CNCCN1c1cc(-c2ccc(Cl)c(C[C@H](NC(=O)c3ccnn3C)C(=O)Nc3ccc(-c4cncn4C)cc3)c2)ccn1 [Example 207, N-[(1S)-1-[[2-chloro-5-[2-[(2R)-2-methylpiperazin-1-yl]-4-pyridyl]phenyl]methyl]-2-[4-(3-methylimidazol-4-yl)anilino]-2-oxo-ethyl]-2-methyl-pyrazole-3-carboxamide]	< 100
Cn1cncc1-c1ccc(NC(=O)C(Cc2cc(-c3ccnc(N4CC[C@H](O)C4)c3)ccc2Cl)NC(=O)c2ccnn2C)cc1 (stereo partly drawn) [Example 191, N-[1-[[2-chloro-5-[2-[(3S)-3-hydroxypyrrolidin-1-yl]-4-pyridyl]phenyl]methyl]-2-[4-(3-methylimidazol-4-yl)anilino]-2-oxo-ethyl]-2-methyl-pyrazole-3-carboxamide]	100 to 1000
C[C@H]1CN(c2cc(-c3ccc(Cl)c(C[C@H](NC(=O)c4ccnn4C)C(=O)Nc4ccc(-c5cncn5C)cc4)c3)ccn2)CCN1 [Example 209, N-[(1S)-1-[[2-chloro-5-[2-[(3S)-3-methylpiperazin-1-yl]-4-pyridyl]phenyl]methyl]-2-[4-(3-methylimidazol-4-yl)anilino]-2-oxo-ethyl]-2-methyl-pyrazole-3-carboxamide]	100 to 1000
CC(C)n1cc(-c2cccc(C(c3ccccc3)C(NC(=O)c3ccnn3C)C(=O)Nc3ccc(-c4cncn4C)cc3)c2)ccc1=O (single isomer, unassigned; diastereomer 2) [Example 232, N-[1-[[3-(1-isopropyl-6-oxo-3-pyridyl)phenyl]-phenyl-methyl]-2-[4-(3-methylimidazol-4-yl)anilino]-2-oxo-ethyl]-2-methyl-pyrazole-3-carboxamide (Diastereomer 2)]	> 1000
Cc1n[nH]c(C)c1-c1ccc(NC(=O)[C@H](Cc2cc(N3CCOCC3)ccc2Cl)NC(=O)c2ccnn2C)cc1 [Example 311, N-[(1S)-1-[(2-chloro-5-morpholino-phenyl)methyl]-2-[4-(3,5-dimethyl-1H-pyrazol-4-yl)anilino]-2-oxo-ethyl]-2-methyl-pyrazole-3-carboxamide]	> 1000
Cc1n[nH]c(C)c1-c1ccc(NC(=O)[C@H](Cc2cc(-c3ccnc(N4CC[S+]([O-])CC4)n3)ccc2Cl)NC(=O)C2(F)CC2)cc1 [Example 315, N-[(1S)-1-[[2-chloro-5-[2-(1-oxidothiomorpholin-1-ium-4-yl)pyrimidin-4-yl]phenyl]methyl]-2-[4-(3,5-dimethyl-1H-pyrazol-4-yl)anilino]-2-oxo-ethyl]-1-fluoro-cyclopropanecarboxamide]	< 100
Cc1ncn(C)c1-c1ccc(NC(=O)[C@H](Cc2cc(-c3ccnc(N4CCOCC4)c3)ccc2Cl)NC(=O)C2(F)CC2)cc1 [Example 224, N-[(1S)-1-[[2-chloro-5-(2-morpholino-4-pyridyl)phenyl]methyl]-2-[4-(3,5-dimethylimidazol-4-yl)anilino]-2-oxo-ethyl]-1-fluoro-cyclopropanecarboxamide]	< 100
Cc1cc(-c2ccc(Cl)c(CC(NC(=O)c3ccnn3C)C(=O)Nc3ccc(-c4nncn4C)cc3)c2)ccc1C#N (centres unmarked) [Example 309, N-[1-[[2-chloro-5-(4-cyano-3-methyl-phenyl)phenyl]methyl]-2-[4-(4-methyl-1,2,4-triazol-3-yl)anilino]-2-oxo-ethyl]-2-methyl-pyrazole-3-carboxamide]	> 1000
